Source: patent publication US10233198B2, “Pro-drugs of NSAIAs with very high skin and membranes penetration rates and their new medicinal uses” (Techfields Pharma Co., Ltd., priority 2007, dated 2019)

Assays:
[1] = in vivo
Protocol: The in vivo rates of penetration of pro-drugs and their parent drugs through the skin of intact rats were compared. The donor consisted of 20% pro-drugs or their parent drugs in 1 ml of ethanol applied to about 5 cm^2 area on the backs of rats (˜200 g). After 4 hours, the rats were killed, and 5 ml of methanol was added to 1 ml of blood, 1 g of liver, 1 g of kidney, or 1 g of brain (liver, kidney or brain was washed with pH 7.2 buffer for three times) and the mixtures were homogenized. The samples were then centrifuged for 5 min and analyzed using HPLC.
After 4 hours, the rats were killed, and 5 ml of methanol was added to 1 ml of blood, 1 g of liver, 1 g of kidney, or 1 g of brain (liver, kidney or brain was washed with pH 7.2 buffer for three times) and the mixtures were homogenized.

Chinese White rabbits = assay: Malassezia-induced psoriasis-like lesions; format: in vivo; details: 5% aqueous solution applied twice per day; 10 days after the application
Text: COX-1 and COX-2 play a very important role in animal immune-responses. NSAIAs inhibite COX-1 and COX-2. The pro-drugs of NSAIAs in this invention may be very useful for treating psoriasis, discoid lupus erythematosus, systemic lupus erythematosus (SLE), and other autoimmune diseases. Heavy suspensions of Malassezia [Rosenberg, E. W., et al., Mycopathologia, 72, 147-154 (1980)] were applied to the shaved skin on the backs of the Chinese white rabbits (n=4×6) twice (at 7 am and 7 pm) per day for 2 weeks, lesions similar to psoriasis resulted.

[2] = tested on: SLAC/GK rats, type 2 diabetes; assay: Blood glucose in type 2 diabetic rats, transdermal; format: in vivo; details: no fasting; for Blood glucose, diabetic rats, Baseline: baseline of the treatment group; for Blood glucose, diabetic rats, Average: transdermal, equal to 20 mg/kg of NSAIAs once per day for 5 weeks, measured every 3 days, second to fifth week
Text: (§1) The pro-drugs in this invention lower blood glucose levels in rat models (SLAC/GK, type 2 diabetes, n=7). 50% acetone solution of diethylaminoethyl acetylsalicylate.acetylsaficylic acid salt (P-1, in acetone); 4-acetamidophenyl salicylyldimethylaminobutyrate.HCl (P-6), diethylaminoethyl 5-(2,4-difluorophenyl) acetylsalicylate.5-(2,4-difluorophenyl) acetylsalicylic acid salt (P-8), diethylaminoethyl salicylsalicylate.AcOH (P-9), diethylaminoethyl salicylate.AcOH (P-10), diethylaminoethyl 5-acetamido-acetylsalicylate (P-58), diethylaminoethyl acetylsalicylsalicylate. acetylsalicylsalicylic acid salt (P-59), diethylaminoethyl acetylsalicylsalicylate. acetylsalicylsalicylsalicylic acid salt (P-60) (equal to of 20 mg/kg of NSAIAs) were administered transdermally to the backs (about 1.5 cm^2) of rats (fur was shaved) once per day (at 8 am) for 5 weeks. The blood glucose levels were measured once every 3 days at 4 pm (no fasting) from the second week to the fifth week. The blood lipid levels were measured at the end of the fifth week.

normal rats = assay: Blood glucose in normal rats, transdermal; format: in vivo; details: no fasting; for Blood glucose, normal rats, Baseline: baseline of the treatment group; for Blood glucose, normal rats, Average: transdermal, equal to 20 mg/kg of NSAIAs once per day for 5 weeks, second to fifth week
[3] = tested on: SLAC/GK rats, type 2 diabetes; assay: Blood lipid levels in type 2 diabetic rats, transdermal; format: in vivo; details: for Triglycerides, Baseline: baseline of the treatment group; for Cholesterol (total), Average / Triglycerides, Average: end of fifth week, transdermal, equal to 20 mg/kg of NSAIAs once per day
Text: as §1

[4] = tested on: SLAC/GK rats, type 2 diabetes; assay: Blood lipid levels in type 2 diabetic rats, oral with food; format: in vivo
Text: The pH of stomach juice is 1-3. The negative charge on the phosphate head group of membrane is neutralized by the proton and the positive charge on the amino groups of these pro-drugs cannot bond to the phosphate head group of membranes, then the pro-drugs cannot pass through the wall of the stomach and will not hurt or upset the stomach. The pH of the duodenum is about 5-7 and the pro-drugs can pass through the mucosa of duodenum. The pancreas is nearby and large amount of the pro-drugs will enter there before going to the liver, kidneys, and the general circulation where the drug will be metabolized, so only very low dose of these pro-drugs are needed and very few and low side effects will be caused. The 20% acetone solution of diethylaminoethyl acetylsalicylate.acetylsalicylic acid salt (P-1, in acetone); 4-acetamidophenyl salicylyldimethylaminobutyrate.HCl (P-6), diethylaminoethyl 5-(2,4-difluorophenyl) acetylsalicylate.5-(2,4-difluorophenyl) acetylsalicylic acid salt (P-8), diethylaminoethyl salicylsalicylate.AcOH (P-9), diethylaminoethyl salicylate.AcOH (P-10), diethylaminoethyl 5-acetamido-acetylsalicylate (P-58), diethylaminoethyl acetylsalicylsalicylate. acetylsalicylsalicylic acid salt (P-59), diethylaminoethyl acetylsalicylsalicylate. acetylsalicylsalicylsalicylic acid salt (P-60) (equal to of 15 mg/kg of NSAIAs) were mixed with food and were orally administered to the rats (SLAC/GK, type 2 diabetes, n=7) with food every day for 5 weeks. The blood glucose levels were measured once every 3 days at 3 pm (no fasting) from the second week to the fifth week. The blood lipid levels were measured at the end of the fifth week.

[5] = tested on: SLAC:NOD-IDDM mice, type 1 diabetes; assay: Blood glucose in type 1 diabetic mice, transdermal; format: in vivo; details: no fasting; for Blood glucose, type I diabetic mice, Baseline: baseline of the treatment group; for Blood glucose, type I diabetic mice, Average: transdermal, equal to 20 mg/kg of NSAIAs once per day for 7 weeks, fourth to seventh week
Text: The pro-drugs in this invention lower blood glucose levels in mouse models (SLAC:NOD-IDDM, type 1 diabetes, n=7). 20% acetone solution of diethylaminoethyl acetylsalicylate.acetylsalicylic acid salt (P-1, in acetone); 4-acetamidophenyl salicylyldimethylaminobutyrate.HCl (P-6), diethylaminoethyl 5-(2,4-difluorophenyl) acetylsalicylate.5-(2,4-difluorophenyl) acetylsalicylic acid salt (P-8), diethylaminoethyl salicylsalicylate.AcOH (P-9), diethylaminoethyl salicylate.AcOH (P-10), diethylaminoethyl 5-acetamido-acetylsalicylate (P-58), diethylaminoethyl acetylsalicylsalicylate. acetylsalicylsalicylic acid salt (P-59), diethylaminoethyl acetylsalicylsalicylate. acetylsalicylsalicylsalicylic acid salt (P-60) (equal to of 20 mg/kg of NSAIAs) were administered transdermally to the backs (about 1 cm^2) of mice (fur was shaved) once per day (at 8 am) for 7 weeks. The blood glucose levels were measured once every 3 days at 3 pm (no fasting) from the fourth week to the seventh week.

[6] = baseline of the treatment group
[7] = end of fifth week, oral with food, equal to 15 mg/kg of NSAIAs every day

CC(C(=O)O)c1cccc(Oc2ccccc2)c1 (stereo not drawn) [fenoprofen]
Drug found in rat tissues or plasma after topical application of the parent drug itself [1]: None of these drugs was found | Brain level of prodrug or metabolite ([1]; rat, 4 h): 45 ± 5 µg/g | Kidney level of prodrug or metabolite ([1]; rat, 4 h): 48 ± 6 µg/g | Liver level of prodrug or metabolite ([1]; rat, 4 h): 38 ± 8 µg/g | Plasma level of prodrug or metabolite ([1]; rat, 4 h): 80 ± 8 µg/mL

CC(=O)O.CCc1cccc2c3c([nH]c12)C(CC)(CC(=O)OCCN(CC)CC)OCC3 (stereo not drawn) [P-15, diethylaminoethyl 1,8-diethyl-1,3,4,9-tetrahydropyrano-[3,4-b]indole-1-acetate.AcOH]
Psoriasis-like lesions (Chinese White rabbits): the lesions were resolved

CC(=O)O.CCN(CC)CCOC(=O)Cc1cc(C)c(C(=O)c2ccc(Cl)cc2)n1C [P-14, diethylaminoethyl 5-(4-Chlorobenzoyl)-1,4-dimethyl-1H-pyrrole-2-acetate.AcOH]
Psoriasis-like lesions (Chinese White rabbits): the lesions were resolved

CC(=O)O.CCN(CC)CCOC(=O)Cc1cn(-c2ccccc2)nc1-c1ccc(Cl)cc1 [P-22, diethylaminoethyl 3-(4-chlorophenyl)-1-phenyl-1H-pyrazole-4-acetate.AcOH]
Psoriasis-like lesions (Chinese White rabbits): the lesions were resolved

CC(=O)Nc1ccc(OC(=O)c2ccccc2OC(=O)CCCN(C)C)cc1.Cl [P-6, 4-acetamidophenyl salicylyldimethylaminobutyrate.HCl]
Blood glucose, diabetic rats, Baseline [2]: 16.7 ± 4 mmol/L | Blood glucose, diabetic rats, Average [2]: 8.5 ± 2 mmol/L | Blood glucose, normal rats, Baseline (normal rats): 6.8 ± 1 mmol/L | Blood glucose, normal rats, Average (normal rats): 6.5 ± 1 mmol/L | Triglycerides, Baseline [3]: 6.3 ± 0.5 mmol/L | Cholesterol (HDL), Baseline [4, 6]: 1.8 ± 0.1 mmol/L | Triglycerides, Baseline [4, 6]: 5.9 ± 0.5 mmol/L | Blood glucose, type I diabetic mice, Baseline [5]: 27.7 ± 4 mmol/L | Blood glucose, type I diabetic mice, Average [5]: 9.5 ± 2 mmol/L

O=C(O)c1ccccc1O [Salicylic acid]
Brain level of prodrug or metabolites ([1]; rat, 4 h): 30 ± 6 µg/g | Kidney level of prodrug or metabolites ([1]; rat, 4 h): 45 ± 6 µg/g | Liver level of prodrug or metabolites ([1]; rat, 4 h): 30 ± 8 µg/g | Plasma level of prodrug or metabolites ([1]; rat, 4 h): 80 ± 10 µg/mL

CCN(CC)CCOC(=O)c1cc(NC(C)=O)ccc1OC(C)=O [P-58, diethylaminoethyl 5-acetamido-acetylsalicylate]
Blood glucose, diabetic rats, Baseline [2]: 17.1 ± 3 mmol/L | Blood glucose, normal rats, Average (normal rats): 7.1 ± 1 mmol/L | Cholesterol (total), Average [3]: 5.4 ± 0.4 mmol/L | Triglycerides, Baseline [4, 6]: 5.9 ± 0.5 mmol/L | Cholesterol (total), Average [4, 7]: 4.9 ± 0.4 mmol/L | Triglycerides, Average [4, 7]: 2.8 ± 0.2 mmol/L | Blood glucose, type I diabetic mice, Baseline [5]: 27.1 ± 3 mmol/L | Blood glucose, type I diabetic mice, Average [5]: 7.9 ± 1 mmol/L

CC(C)Cc1ccc(C(C)C(=O)O)cc1 (stereo not drawn) [ibuprofen]
Drug found in rat tissues or plasma after topical application of the parent drug itself [1]: None of these drugs was found | Brain level of prodrug or metabolite ([1]; rat, 4 h): 35 ± 5 µg/g | Kidney level of prodrug or metabolite ([1]; rat, 4 h): 45 ± 6 µg/g | Liver level of prodrug or metabolite ([1]; rat, 4 h): 35 ± 8 µg/g | Plasma level of prodrug or metabolite ([1]; rat, 4 h): 70 ± 8 µg/mL

CC(=O)Oc1ccccc1C(=O)O [Aspirin]
Drug found in rat tissues or plasma after topical application of the parent drug itself [1]: None of these drugs was found

CC(=O)O.CCN(CC)CCOC(=O)c1ccccc1O [P-10, diethylaminoethyl salicylate.AcOH]
Blood glucose, diabetic rats, Baseline [2]: 15.8 ± 3 mmol/L | Blood glucose, diabetic rats, Average [2]: 8.2 ± 1 mmol/L | Blood glucose, normal rats, Baseline (normal rats): 6.8 ± 1 mmol/L | Triglycerides, Baseline [3]: 6.6 ± 0.6 mmol/L | Triglycerides, Average [3]: 2.9 ± 0.2 mmol/L | Blood glucose, type I diabetic mice, Baseline [5]: 25.8 ± 3 mmol/L | Blood glucose, type I diabetic mice, Average [5]: 8.2 ± 1 mmol/L

CC(=O)Oc1ccc(-c2ccc(F)cc2F)cc1C(=O)O.CCN(CC)CCOC(=O)c1cc(-c2ccc(F)cc2F)ccc1OC(C)=O [P-8, diethylaminoethyl 5-(2,4-difluorophenyl) acetylsalicylate.5-(2,4-difluorophenyl) acetylsalicylic acid salt]
Blood glucose, diabetic rats, Baseline [2]: 17.1 ± 3 mmol/L | Blood glucose, diabetic rats, Average [2]: 8.1 ± 1 mmol/L | Blood glucose, normal rats, Baseline (normal rats): 7.1 ± 1 mmol/L | Triglycerides, Average [3]: 2.1 ± 0.2 mmol/L | Cholesterol (total), Baseline [4, 6]: 7.4 ± 0.6 mmol/L | Triglycerides, Baseline [4, 6]: 6.2 ± 0.7 mmol/L | Cholesterol (total), Average [4, 7]: 5.1 ± 0.3 mmol/L | Blood glucose, type I diabetic mice, Baseline [5]: 29.1 ± 5 mmol/L | Blood glucose, type I diabetic mice, Average [5]: 9.1 ± 1 mmol/L

O=C(O)Cc1ccccc1Nc1c(Cl)cccc1Cl [diclofenac]
Drug found in rat tissues or plasma after topical application of the parent drug itself [1]: None of these drugs was found | Brain level of prodrug or metabolite ([1]; rat, 4 h): 40 ± 5 µg/g | Kidney level of prodrug or metabolite ([1]; rat, 4 h): 48 ± 6 µg/g | Liver level of prodrug or metabolite ([1]; rat, 4 h): 25 ± 8 µg/g | Plasma level of prodrug or metabolite ([1]; rat, 4 h): 75 ± 8 µg/mL

CC(=O)O.CCN(CC)CCOC(=O)c1ccccc1OC(=O)c1ccccc1O [P-9, diethylaminoethyl salicylsalicylate.AcOH]
Blood glucose, diabetic rats, Average [2]: 8.4 ± 1 mmol/L | Blood glucose, normal rats, Baseline (normal rats): 6.5 ± 1 mmol/L | Blood glucose, normal rats, Average (normal rats): 6.7 ± 1 mmol/L | Triglycerides, Baseline [3]: 5.7 ± 0.5 mmol/L | Triglycerides, Average [3]: 2.6 ± 0.2 mmol/L | Cholesterol (total), Average [4, 7]: 5.3 ± 0.4 mmol/L | Blood glucose, type I diabetic mice, Baseline [5]: 26.5 ± 4 mmol/L | Blood glucose, type I diabetic mice, Average [5]: 9.4 ± 1 mmol/L

CC(=O)O.CCN(CC)CCOC(=O)Cc1sc(-c2ccccc2)nc1-c1ccc(Cl)cc1 [P-21, diethylaminoethyl 4-(4-chlorophenyl)-2-phenyl-5-thiazoleacetate.AcOH]
Psoriasis-like lesions (Chinese White rabbits): the lesions were resolved

C=CCOc1ccc(CC(=O)OCCN(CC)CC)cc1Cl.CC(=O)O [P-18, diethylaminoethyl 3-chloro-4-(2-propenyloxy)benzeneacetate.AcOH]
Psoriasis-like lesions (Chinese White rabbits): the lesions were resolved

CC(=O)O.CC(C)Cc1ccc(C(C)C(=O)OCC2CCCNC2)cc1 (stereo not drawn) [P-5, 3-piperidinemethyl 2-(ρ-isobutylphenyl) propionate.AcOH]
Psoriasis-like lesions (Chinese White rabbits): the lesions were resolved

CC(=O)Oc1ccccc1C(=O)Oc1ccccc1C(=O)Oc1ccccc1C(=O)O.CCN(CC)CCOC(=O)c1ccccc1OC(=O)c1ccccc1OC(C)=O [P-60, diethylaminoethyl acetylsalicylsalicylate. acetylsalicylsalicylsalicylic acid salt]
Blood glucose, diabetic rats, Baseline [2]: 15.5 ± 3 mmol/L | Blood glucose, diabetic rats, Average [2]: 8.6 ± 1 mmol/L | Blood glucose, normal rats, Baseline (normal rats): 6.6 ± 1 mmol/L | Blood glucose, normal rats, Average (normal rats): 7.5 ± 1 mmol/L | Triglycerides, Baseline [3]: 5.7 ± 0.6 mmol/L | Cholesterol (total), Average [3]: 5.2 ± 0.3 mmol/L | Triglycerides, Baseline [4, 6]: 6.2 ± 0.5 mmol/L | Cholesterol (total), Average [4, 7]: 5.0 ± 0.3 mmol/L | Blood glucose, type I diabetic mice, Baseline [5]: 25.5 ± 3 mmol/L | Blood glucose, type I diabetic mice, Average [5]: 8.6 ± 1 mmol/L

CC(=O)O.CCN(CC)CCOC(=O)Cc1cccc(C(=O)c2ccc(Br)cc2)c1N [P-17, diethylaminoethyl 2-amino-3-(4-bromo-benzoyl)benzeneacetate.AcOH]
Psoriasis-like lesions (Chinese White rabbits): the lesions were resolved
